In publication PMC11568214, “The impact of 9-azaglycophymine and phenylguanidine derivatives on the proliferation of various breast cancer cell lines in vitro and in vivo” (Scientific Reports, 2024):

Legend:
HepG2 cell line = test system: HepG2 cell line; design: method as in PMID 34237623; conditions: read-out: IC50 against the HepG2 cell line; cited from earlier work
[1] = test system: MCF-7, MDA-MB-468, BT-474 and HCC1937 breast cancer cells; experiment: Fast screening / CV cell viability, breast cancer cell line panel; assay type: cell-based, human; design: reduction of cell viability: concentration or dose not given beside the values; conditions: for anti-proliferative / cytotoxic effect: screening at 1, 10 and 50 µM; for concentration below which active in cytotoxicity screening / reduction of cell viability: initial screening; for IC50: Homo sapiens, read-out: IC50 values (National Cancer Institute guideline criterion); for reduction of cell viability: after 72 h of treatment
Method: (§1) For initial testing of the cytotoxic effect of the available glycophymine compounds (Table S2), cells were treated with compound in three concentrations: 1, 10 and 50 µM. Cells were seeded in 96-well plates and allowed to adhere overnight. Then they were treated for 72 h under standard culture conditions. […] For IC50 determination, the compounds were tested at seven concentrations (0.78, 1.56, 3.13, 6.25, 12.5, 25 and 50 µM). Subsequently, the cell viability was determined by using the crystal violet (CV) assay. Moreover, the selected compounds were tested against the mouse breast cancer cell line 4T1 (TNBC) as well. The compounds were prepared initially to obtain a stock solution of 20 mM in DMSO. Later, the working solutions were prepared by mixing the required amount of DMSO stock with the optimal medium for each cell line. The DMSO concentration in the final solution was always maintained lower than 0.5% to avoid any DMSO-derived side effects.
(§2) For CV assays, after 72 h treatment, the treatment medium was discarded from the 96-well plates, and the cells were washed using 50 µL of PBS. Cells were fixed by adding 50 µL of 4% (v/v) paraformaldehyde (PFA) in PBS for 15 min at room temperature (RT). Afterwards, PFA was discarded, and the plates were dried for 15 min at RT. 50 µL of CV working solution (0.1% w/v CV in PBS) were added to the wells, followed by 15 min incubation at RT. Subsequently, the CV solution was discarded, and the plates were washed using aqua bidest. (ddH2O) to remove any remaining CV solution. The plates were left to dry overnight at RT, and then 50 µL of 33% (v/v) acetic acid in ddH2O were added to each well. Finally, the absorbance was measured at 570 nm by using a SpectraMax M5 plate reader (Molecular Devices, California, USA) and at 670 nm as background wavelength. […] Additionally, gefitinib, an approved EGFR inhibitor of the quinazoline family, was tested as anti-proliferative positive control. The data represent the mean ± standard deviation derived from three independent biological replicates. Dose–response curves were generated by four-parametric non-linear regression analysis using the GraphPad Prism software (version: 10.1, San Diego, CA, USA). Based on that, IC50 values and standard deviations were calculated for each replicate individually.

MDA-MB-468 = experiment: Crystal violet (CV) cell viability assay, IC50 determination; assay type: cell-based, human; conditions: Homo sapiens, MDA-MB-468, 72 h treatment, mean ± SD
Method: as §1, §2

4T1 = experiment: as above; assay type: cell-based; conditions: Mus musculus, 72 h treatment, mean ± SD
Method: as §1, §2

MCF-7 = experiment: as above; assay type: cell-based; conditions: Homo sapiens, MCF7, 72 h treatment, mean ± SD
Method: as §1, §2

HCC1937 = experiment: as above; assay type: cell-based; conditions: Homo sapiens, 72 h treatment, mean ± SD
Method: as §1, §2

BT-474 = experiment: as above; assay type: cell-based; conditions: Homo sapiens, 72 h treatment, mean ± SD
Method: as §1, §2

SMILES	IC50 (HepG2 cell line) [µM]	anti-proliferative / cytotoxic effect ([1]; 72 h)	IC50 (MDA-MB-468) [µM]	IC50 (4T1) [µM]	IC50 (MCF-7) [µM]	IC50 (HCC1937) [µM]	IC50 (BT-474) [µM]	cytotoxicity relative to compound 19 ([1]; 72 h, CV assay)	concentration below which active in cytotoxicity screening ([1]; 72 h)	IC50 ([1]; 72 h) [mg/L]	reduction of cell viability [1] [%]
COc1cc(C(=O)c2nc3ccccc3c(=O)[nH]2)cc(OC)c1OC [2-(3,4,5-trimethoxybenzoyl)quinazolin-4(3H)-one]	1.22 ± 0.12	–	–	–	–	–	–	–	–	–	–
O=c1[nH]c(Nc2ccccc2)nc2ccccc12 [Compound 15, 2-(phenylamino)quinazolin-4(1H)-one]	–	did not show any cytotoxic effect	–	–	–	–	–	–	–	–	–
O=c1[nH]c(Nc2ccc(Cl)cc2)nc2ccccc12 [Compound 22]	–	significantly reduced cell proliferation	13 ± 0.4	23.5 ± 7.2	10 ± 0.5	14.8 ± 3.7	9.9 ± 1.5	twofold less	below 10 µM	< 30	≥ 50
O=c1[nH]c(Nc2ccc(Cc3ccc([N+](=O)[O-])cc3[N+](=O)[O-])cc2)nc2ccccc12 [Compound 24]	–	significantly reduced cell proliferation	11.2 ± 1.8	11.3 ± 3.5	10.3 ± 1.3	11 ± 1.9	9.7 ± 1.3	–	below 10 µM	< 30	≥ 50
O=c1[nH]c(Nc2ccccc2)nc2cc([N+](=O)[O-])ccc12 [Compound 46]	–	significantly reduced cell proliferation	6.9 ± 0.2	7.9 ± 0.6	5.7 ± 0.6	3.9 ± 0.2	4.4 ± 0.1	–	below 10 µM	< 30	≥ 50
O=c1[nH]c(Nc2ccccc2)nc2ccc([N+](=O)[O-])cc12 [Compound 47]	–	significantly reduced cell proliferation	8 ± 0.3	12.6 ± 1.2	6.3 ± 0.4	4.4 ± 0.3	4.5 ± 0.2	–	below 10 µM	< 30	≥ 50
Nc1ccc2c(=O)[nH]c(Nc3ccccc3)nc2c1 [Compound 48]	–	completely lack cytotoxic activity	–	–	–	–	–	–	–	–	–
Nc1ccc2nc(Nc3ccccc3)[nH]c(=O)c2c1 [Compound 49]	–	completely lack cytotoxic activity	–	–	–	–	–	–	–	–	–
